Measured values: PubChem BioAssay AID248 (DTP/NCI, 2004)
Where “and” joins values, the source holds several entries; their conditions need not be identical. Equal entries are not always repeated. Inconclusive results and toxic doses are left out. Rule as the data show it: active = T/C of 150% or more; inactive = T/C below 125%.

System: L1210 leukemia ip in BDF1 mice, survival T/C
Experiment: NCI In Vivo Anticancer Drug Screen. Data for tumor model L1210 Leukemia (intraperitoneal) in B6D2F1 (BDF1) mice
Details: endpoint: mean survival time, higher = longer survival
Summary of the method: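 Survival endpoint. Drug-treated group vs vehicle group, expressed as T divided by C. Tumor passaged by transplantation.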

[1] = dose: 12.5 mg/kg/injection, schedule: Q01DX009 (ip), vehicle: Klucel (hydroxypropylcellulose) (HPC)
[2] = dose: 25.0 mg/kg/injection, schedule: Q01DX009 (ip), vehicle: Klucel (hydroxypropylcellulose) (HPC)
[3] = dose: 50.0 mg/kg/injection, schedule: Q01DX009 (ip), vehicle: Klucel (hydroxypropylcellulose) (HPC)
[4] = dose: 25.0 mg/kg/injection, schedule: Q01DX009 (ip), vehicle: saline with Tween-80
[5] = dose: 100.0 mg/kg/injection, schedule: Q04DX003 (ip), vehicle: saline
[6] = dose: 100.0 mg/kg/injection, schedule: Q04DX002 (ip), vehicle: Klucel (hydroxypropylcellulose) (HPC)
[7] = dose: 200.0 mg/kg/injection, schedule: Q04DX002 (ip), vehicle: Klucel (hydroxypropylcellulose) (HPC)
[8] = dose: 400.0 mg/kg/injection, schedule: Q04DX002 (ip), vehicle: Klucel (hydroxypropylcellulose) (HPC)
[9] = dose: 100.0 mg/kg/injection, schedule: Q04DX003 (ip), vehicle: saline with Tween-80
[10] = dose: 200.0 mg/kg/injection, schedule: Q04DX003 (ip), vehicle: saline with Tween-80
[11] = dose: 100.0 mg/kg/injection, schedule: Q01DX009 (ip), vehicle: saline with Tween-80
[12] = dose: 200.0 mg/kg/injection, schedule: Q01DX009 (ip), vehicle: saline with Tween-80
[13] = dose: 400.0 mg/kg/injection, schedule: Q04DX003 (ip), vehicle: saline with Tween-80
[14] = dose: 100.0 mg/kg/injection, schedule: Q01DX009 (ip), vehicle: Klucel (hydroxypropylcellulose) (HPC)
[15] = dose: 200.0 mg/kg/injection, schedule: Q01DX009 (ip), vehicle: Klucel (hydroxypropylcellulose) (HPC)
[16] = dose: 400.0 mg/kg/injection, schedule: Q01DX009 (ip), vehicle: Klucel (hydroxypropylcellulose) (HPC)
[17] = dose: 100.0 mg/kg/injection, schedule: Q04DX003 (ip), vehicle: Klucel (hydroxypropylcellulose) (HPC)
[18] = dose: 200.0 mg/kg/injection, schedule: Q04DX003 (ip), vehicle: Klucel (hydroxypropylcellulose) (HPC)
[19] = dose: 400.0 mg/kg/injection, schedule: Q04DX003 (ip), vehicle: Klucel (hydroxypropylcellulose) (HPC)

Measured: T/C

O=C1NC(=O)C2(CCCCC2)N1
inactive: dose: 6.25 mg/kg/injection, schedule: Q04DX003 (ip), vehicle: Klucel (hydroxypropylcellulose) (HPC) 94 % of control | [1] 95 % of control | dose: 12.5 mg/kg/injection, schedule: Q04DX003 (ip), vehicle: Klucel (hydroxypropylcellulose) (HPC) 94 % of control | [2] 96 % of control | dose: 25.0 mg/kg/injection, schedule: Q04DX003 (ip), vehicle: Klucel (hydroxypropylcellulose) (HPC) 87 % of control and 97 % of control | [3] 100 % of control | dose: 50.0 mg/kg/injection, schedule: Q04DX003 (ip), vehicle: Klucel (hydroxypropylcellulose) (HPC) 96 % of control and 101 % of control | dose: 75.0 mg/kg/injection, schedule: Q01DX009 (ip), vehicle: Klucel (hydroxypropylcellulose) (HPC) 102 % of control

c1ccc2sc(SCCSc3nc4ccccc4s3)nc2c1
inactive: dose: 6.25 mg/kg/injection, schedule: Q01DX009 (ip), vehicle: saline with Tween-80 93 % of control | dose: 6.25 mg/kg/injection, schedule: Q04DX002 (ip), vehicle: saline with Tween-80 100 % of control | dose: 12.5 mg/kg/injection, schedule: Q01DX009 (ip), vehicle: saline with Tween-80 97 % of control | dose: 12.5 mg/kg/injection, schedule: Q04DX002 (ip), vehicle: saline with Tween-80 89 % of control | [4] 95 % of control | dose: 25.0 mg/kg/injection, schedule: Q04DX002 (ip), vehicle: saline with Tween-80 89 % of control

CCOC(=O)c1cnc(OCC)nc1Nc1ccccc1Br
inactive: dose: 100.0 mg/kg/injection, schedule: Q01DX001 (ip), vehicle: Klucel (hydroxypropylcellulose) (HPC) 100 % of control | dose: 200.0 mg/kg/injection, schedule: Q01DX001 (ip), vehicle: Klucel (hydroxypropylcellulose) (HPC) 95 % of control | dose: 400.0 mg/kg/injection, schedule: Q01DX001 (ip), vehicle: Klucel (hydroxypropylcellulose) (HPC) 97 % of control

CN1CCC(=C2c3ccccc3C=Cc3ccccc32)CC1
inactive: dose: 6.25 mg/kg/injection, schedule: Q01DX009 (ip), vehicle: saline 95 % of control | dose: 12.5 mg/kg/injection, schedule: Q01DX009 (ip), vehicle: saline 90 % of control | dose: 25.0 mg/kg/injection, schedule: Q01DX009 (ip), vehicle: saline 95 % of control | dose: 25.0 mg/kg/injection, schedule: Q04DX003 (ip), vehicle: saline 96 % of control | dose: 50.0 mg/kg/injection, schedule: Q01DX009 (ip), vehicle: saline 98 % of control | [5] 102 % of control

Cc1cccc(C=O)c1
inactive: dose: 100.0 mg/kg/injection, schedule: Q01DX001 (ip), vehicle: saline 102 % of control | dose: 200.0 mg/kg/injection, schedule: Q01DX001 (ip), vehicle: saline 96 % of control | dose: 400.0 mg/kg/injection, schedule: Q01DX001 (ip), vehicle: saline 96 % of control

NNC12CCC(c3ccccc31)c1ccccc12
inactive: dose: 100.0 mg/kg/injection, schedule: Q04DX003 (ip), vehicle: saline sonified 96 % of control | dose: 200.0 mg/kg/injection, schedule: Q04DX003 (ip), vehicle: saline sonified 101 % of control

O=C(O)c1ccc(Cl)cc1F
inactive: [6] 97 % of control | [7] 108 % of control | [8] 97 % of control

CSc1sc2ccc(S(=O)(=O)O)cc2[n+]1C
inactive: [9] 97 % of control | [10] 94 % of control

CCCCN(C(=O)CCl)C(C)(C)C(SSC(c1ccc(Cl)cc1)C(C)(C)N(CCCC)C(=O)CCl)c1ccc(Cl)cc1 (centres undefined)
inactive: [1] 96 % of control | [2] 101 % of control | [3] 96 % of control

CCCCOB(OCCCC)Oc1c(C(C)(C)C)cccc1C(C)(C)C
inactive: dose: 100.0 mg/kg/injection, schedule: Q01DX009 (ip), vehicle: saline 106 % of control | [5] 89 % of control | dose: 200.0 mg/kg/injection, schedule: Q01DX009 (ip), vehicle: saline 93 % of control | dose: 200.0 mg/kg/injection, schedule: Q04DX003 (ip), vehicle: saline 92 % of control | dose: 400.0 mg/kg/injection, schedule: Q01DX009 (ip), vehicle: saline 108 % of control | dose: 400.0 mg/kg/injection, schedule: Q04DX003 (ip), vehicle: saline 91 % of control

Cc1ccccc1NC=O
inactive: [11] 101 % of control | [9] 87 % of control | [12] 101 % of control | [10] 91 % of control | [13] 100 % of control

CCCCOP(=O)(NNP(=O)(OCCCC)OCCCC)OCCCC
inactive: dose: 100.0 mg/kg/injection, schedule: Q04DX002 (ip), vehicle: saline with Tween-80 108 % of control | dose: 200.0 mg/kg/injection, schedule: Q04DX002 (ip), vehicle: saline with Tween-80 116 % of control | dose: 400.0 mg/kg/injection, schedule: Q04DX002 (ip), vehicle: saline with Tween-80 105 % of control

CC(C)Nc1ccc(Nc2ccc(NC(C)C)cc2)cc1
inactive: dose: 1.56 mg/kg/injection, schedule: Q04DX003 (ip), vehicle: alcohol 102 % of control | dose: 3.12 mg/kg/injection, schedule: Q01DX009 (ip), vehicle: alcohol 98 % of control | dose: 3.12 mg/kg/injection, schedule: Q04DX003 (ip), vehicle: alcohol 109 % of control | dose: 6.25 mg/kg/injection, schedule: Q01DX009 (ip), vehicle: alcohol 94 % of control | dose: 6.25 mg/kg/injection, schedule: Q04DX003 (ip), vehicle: alcohol 105 % of control | dose: 12.5 mg/kg/injection, schedule: Q01DX009 (ip), vehicle: alcohol 96 % of control | dose: 12.5 mg/kg/injection, schedule: Q04DX003 (ip), vehicle: alcohol 95 % of control | dose: 18.0 mg/kg/injection, schedule: Q01DX009 (ip), vehicle: alcohol 104 % of control

O=C(O)CCSCCSCCC(=O)O
inactive: [14] 95 % of control | [15] 90 % of control | [16] 100 % of control

Fc1c(Cl)c(Cl)c(Cl)c(Cl)c1Cl
inactive: dose: 100.0 mg/kg/injection, schedule: Q01DX009 (ip), vehicle: saline sonified 110 % of control | [17] 96 % of control | dose: 200.0 mg/kg/injection, schedule: Q01DX009 (ip), vehicle: saline sonified 100 % of control | [18] 97 % of control | dose: 400.0 mg/kg/injection, schedule: Q01DX009 (ip), vehicle: saline sonified 95 % of control | [19] 96 % of control

CCCCCC(Oc1ccc(Cl)cc1C)C(=O)OCC (centres undefined)
inactive: [6] 90 % of control | [7] 87 % of control | [8] 107 % of control

CCSCCC(C)(N)C(=O)O (centres undefined)
inactive: [6] 97 % of control | [7] 93 % of control | [8] 89 % of control

CN(Cc1ccccc1)C(=O)Nc1cccc(C(F)(F)F)c1
inactive: [11] 107 % of control | [12] 98 % of control | dose: 400.0 mg/kg/injection, schedule: Q01DX009 (ip), vehicle: saline with Tween-80 96 % of control

CP(=S)(c1ccccc1)P(C)(=S)c1ccccc1 (centres undefined)
inactive: [14] 99 % of control | [17] 98 % of control | [15] 103 % of control | [18] 101 % of control | [16] 94 % of control | [19] 98 % of control

COc1ccc(C=O)cc1OCCOc1cc(C=O)ccc1OC
inactive: [3] 91 % of control | [14] 108 % of control | [15] 94 % of control

O=c1[nH]nnc2[nH]ncc12
inactive: [9] 102 % of control | [10] 104 % of control | [13] 98 % of control

ClCc1ccc(CCl)c(Cl)c1Cl
inactive: [4] 105 % of control | dose: 50.0 mg/kg/injection, schedule: Q01DX009 (ip), vehicle: saline with Tween-80 97 % of control | [11] 93 % of control

CCCCCCCCCCCCCCCCCCOB(OCCCCCCCCCCCCCCCCCC)OCCCCCCCCCCCCCCCCCC
inactive: [9] 108 % of control | [10] 108 % of control | [13] 97 % of control
